Test results reported in paper PMC6522510 (Nature Communications, 2019).
Read-outs that look alike come from different tables or passages of the source.

Legend:
Experiment in all cases: cells
Set-up in all cases: species or system AML cell lines (8); Secondary HTS, 10-point dose-response in triplicate, Cell Titer Glo viability, four-parameter fit EC50
M07e = details: M-07e, read-out: M07e
CMK = details: Homo sapiens, read-out: CMK
ML-2 = details: Homo sapiens, read-out: ML-2
U937 = details: Homo sapiens, read-out: U937
CHRF288-11 = details: read-out: CHRF288-11
CMS = details: read-out: CMS
MV4-11 = details: Homo sapiens, read-out: MV4-11
MOLM-13 = details: Homo sapiens, read-out: MOLM-13

SMILES	EC50 (U937; U-937, 72 h) [µM]	EC50 (MV4-11; MV4-11, 72 h) [µM]	EC50 (MOLM-13; MOLM-13, 72 h) [µM]	EC50 (M07e; 72 h) [µM]	EC50 (CMK; CMK, 72 h) [µM]	EC50 (ML-2; ML-2, 72 h) [µM]	EC50 (CHRF288-11; 72 h) [µM]	EC50 (CMS; 72 h) [µM]	EC50 (M07e; 72 h cell viability) [µM]	EC50 (CMK; 72 h cell viability) [µM]	EC50 (ML-2; 72 h cell viability) [µM]	EC50 (U937; U-937, 72 h cell viability) [µM]	EC50 (CHRF288-11; 72 h cell viability) [µM]	EC50 (CMS; 72 h cell viability) [µM]	EC50 (MV4-11; 72 h cell viability) [µM]	EC50 (MOLM-13; 72 h cell viability) [µM]
COc1cc2c(cc1-c1c(C)noc1C)ncc1[nH]c(=O)n([C@H](C)c3ccccn3)c12 [SJ000785891, I-BET151]	3.2	> 10	0.65	> 10	> 10	2.7	5.1	2.1								
Fc1ccc(CNc2ncnc3ccc(F)cc23)cc1 [SJ000785893, SPAUTIN-1]	3	> 10	> 10	> 10	> 10	> 10	> 10	> 10								
Nc1ncnc2c1ncn2[C@@H]1O[C@H](C(=O)N2CCN(CC(=O)Nc3cccc4c3CNC4=O)CC2)[C@@H](O)[C@H]1O [SJ000785896, EB-47]	> 10	> 10	> 10	> 10	> 10	> 10	> 10	> 10								
COc1cc2c(NC3CCN(C)CC3)nc(N3CCCN(C)CC3)nc2cc1OCCOCCN(C)C [SJ000785901, UNC0321]	> 10	> 10	> 10	> 10	> 10	> 10	> 10	> 10								
CC(C)(O)[C@@H]1CC[C@](C)([C@H]2[C@@H](O)C[C@@]3(C)[C@@H]4C[C@H](O[C@@H]5O[C@H](CO)[C@@H](O)[C@H](O)[C@H]5O)[C@H]5C(C)(C)[C@@H](O[C@@H]6OC[C@@H](O)[C@H](O)[C@H]6O)CC[C@@]56C[C@@]46CC[C@]23C)O1 [SJ000785909, ASTRAGALOSIDE IV]	> 10	> 10	4.3	> 10	> 10	0.87	0.81	> 10								
C[C@@H]1NC(=O)[C@H]2CCCN2C(=O)[C@H](CCCCCC(=O)[C@@H]2CO2)NC(=O)[C@@H](C)NC1=O [SJ000785910, HC TOXIN]									0.021	> 10	0.11	0.032	0.05	0.029	> 10	0.15
O=C(NC(NC(=S)Nc1ccc(F)c([N+](=O)[O-])c1)C(Cl)(Cl)Cl)C(c1ccccc1)c1ccccc1 (stereo not drawn) [SJ000786007, CGK 733]	> 10	> 10	> 10	> 10	> 10	> 10	> 10	> 10								
N[C@H](CCC(=O)N[C@@H](Cc1c[nH]c2ccccc12)C(=O)O)C(=O)O [SJ000795988, GOLOTIMOD]	> 10	> 10	> 10	> 10	> 10	> 10	> 10	> 10								
Cc1ccc(C(=O)COC(=O)c2cccc(NC(=O)c3ccc([N+](=O)[O-])cc3[N+](=O)[O-])c2)cc1 [SJ000796012, FM19G11]	> 10	> 10	> 10	> 10	> 10	> 10	> 10	> 10								
CC(C)Oc1ccc(-c2cnc3c(-c4ccnc5ccccc45)cnn3c2)cc1 [SJ000796016, DMH-1]	> 10	> 10	0.0063	> 10	> 10	> 10	> 10	> 10								
COC1=C2C[C@@H](C)C[C@H](OC)[C@H](O)[C@@H](C)/C=C(\C)[C@H](OC(N)=O)[C@@H](OC)/C=C\C=C(/C)C(=O)NC(=CC1=O)C2=O [SJ000796035, GELDANOMYCIN]	> 10	0.0098	0.021	> 10	> 10	> 10	> 10	> 10								
CCNC(=O)c1cc2c(-c3cc(OCCN4CCCC4)c(Cl)cc3Cl)nc(N)nc2s1 [SJ000796085, NVP-BEP800]	0.15	0.11	0.087	> 10	0.19	0.21	0.43	0.4								
COC(=O)[C@H](CCSC)NC(=O)c1ccc(NC[C@@H](N)CS)cc1-c1ccccc1 [SJ000803699, FTI-277]	> 10	> 10	> 10	> 10	> 10	> 10	> 10	> 10								
COC(=O)[C@H](CC(C)C)NC(=O)c1ccc(NCc2cnc[nH]2)cc1-c1cccc2ccccc12 [SJ000803715, GGTI-2147]	> 10	> 10	1.1	> 10	> 10	> 10	> 10	> 10								
CSCC[C@H](NC(=O)[C@H](Cc1ccccc1)NC[C@@H](NC[C@@H](N)CS)C(C)C)C(=O)O [SJ000803726, FTASE INHIBITOR I]	> 10	> 10	> 10	> 10	> 10	> 10	> 10	> 10								

Second part, led by results:

EC50 (U937; U-937, 72 h) [µM]	EC50 (MV4-11; MV4-11, 72 h) [µM]	EC50 (MOLM-13; MOLM-13, 72 h) [µM]	SMILES	EC50 (M07e; 72 h) [µM]	EC50 (CMK; CMK, 72 h) [µM]	EC50 (ML-2; ML-2, 72 h) [µM]	EC50 (CHRF288-11; 72 h) [µM]	EC50 (CMS; 72 h) [µM]	EC50 (M07e; 72 h cell viability) [µM]	EC50 (CMK; 72 h cell viability) [µM]	EC50 (ML-2; 72 h cell viability) [µM]	EC50 (U937; U-937, 72 h cell viability) [µM]	EC50 (CHRF288-11; 72 h cell viability) [µM]	EC50 (CMS; 72 h cell viability) [µM]	EC50 (MV4-11; 72 h cell viability) [µM]	EC50 (MOLM-13; 72 h cell viability) [µM]
> 10	> 10	> 10	CCCCCCCCCCCCCCCc1cccc(O)c1C(=O)O [SJ000785900, ANACARDIC ACID]	> 10	> 10	> 10	> 10	> 10								
0.75	1.2	1.4	Cc1cc(Nc2ccc(NC(=O)c3ccc(Nc4ccnc5ccccc45)cc3)cc2)nc(N)n1 [SJ000785906, SGI-1027]	1.6	> 10	2.6	2.8	9.9								
> 10	> 10	> 10	Cc1cc2nc(NCCCO)n(CC(=O)c3cc(C(C)(C)C)c(O)c(C(C)(C)C)c3)c2cc1C [SJ000786025, CID-2858522]	> 10	> 10	> 10	> 10	> 10								
> 10	> 10	> 10	Cc1nn(C)c(C)c1C(=O)N1CCN(Cc2nc3ccccc3n2CC(C)(C)C)CC1 [SJ000796025, FTASE INHIBITOR III]	> 10	3.1	> 10	> 10	> 10								
> 10	> 10	> 10	COc1ccc(/C=C/c2ccccc2F)cc1 [SJ000796052, CAY10512]	> 10	> 10	> 10	> 10	> 10								
> 10	5	2.5	O=C(c1cn(Cc2cncn2Cc2ccc(Br)cc2)cc1-c1cccc2ccccc12)N1CCOCC1 [SJ000803701, LB 42708]	> 10	> 10	2.3	> 10	3.4								
2	> 10	> 10	CSCC[C@@H](NC(=O)c1ccc(CNCc2cnc[nH]2)cc1-c1ccccc1C)C(=O)OCc1ccccc1 [SJ000803709, FTI-2628]	> 10	> 10	> 10	> 10	> 10								
2.7	> 10	> 10	CSCC[C@H](NC(=O)c1ccc(NC(=O)[C@@H](N)CS)cc1)C(=O)O [SJ000803714, H-CYS-4-ABZ-MET-OH]	> 10	> 10	> 10	> 10	> 10								
> 10	> 10	8	Cc1cc(C(C)Nc2ccccc2)c2nc(N3CCOCC3)cc(=O)n2c1 (stereo not drawn) [SJ000803731, TGX-221]	> 10	> 10	> 10	> 10	> 10								
